# Measured values taken from patent US7594984B2, “Apparatus and method for measuring activity signals of biological samples” (Panasonic Corporation, priority 2002, dated 2009).
# How the values were obtained:
# [1] = system: nerve cells prepared from lymnaea; assay: Extracellular recording of nerve cell electrical signals at a series of Carbachol concentrations; mean value of standard deviations; assay type: cell-based; settings: concentrations 0-100, SD sampled every 100 ms from 10-second data, FIG. 10
# Excerpt: FIG. 9 is a block diagram schematically illustrating a configuration of the apparatus for measuring the activity signals of biological samples according to Embodiment 3. The apparatus employs the apparatus of Embodiment 1 as a measurement unit (a signal source) 101, and has a function for processing electrical signals detected by the measurement unit 101. As shown in FIG. 9(A), the apparatus is provided with a group SD (standard deviation) calculation unit 102, a mean value calculation unit 105, an activation evaluation unit 120 and a data display unit 110. According to the group SD calculation unit 102, the standard deviation of one group consisting of a predetermined number of samples is calculated on the basis of time-series data detected by the measurement unit 101. […] According to the mean value calculation unit 105, the mean value of the obtained plurality of standard deviations is calculated. […] Therefore, according to the activation calculation unit 120, activation can be calculated based on the input information and can be classified by comparison with pre-stored information. […] According to the apparatus, noise can be removed from digital signals (predetermined time-series data) captured at a fixed sampling rate, and then significant signals showing, for example, the opening and closing of ion channels can be extracted, measured and classified. […]
# [2] = system: nerve cells prepared from lymnaea; assay: Extracellular recording before and after Carbachol administration; normal distribution of standard deviations (mean value, half-width); assay type: cell-based; settings: 50-μM Carbachol
# Excerpt: The normal distribution approximation unit 103 classifies a plurality of standard deviations obtained in the group SD calculation unit 102 into a plurality of classes set at predetermined widths. The classes are plotted on the X axis and the number of standard deviations classified into each class is plotted on the Y axis, to obtain a graph. The graph obtained is approximated to a normal distribution. Methods for approximating the graph to a normal distribution include, for example, various curve fitting analyses, such as exponential decrease, exponential increase, Gaussian, Lorentzian, Sigma, Multipeak and non-linear methods. The mean value/half-width calculation unit 106 calculates the mean value and half-width (the half-peak height width) of the normal distribution obtained.
# The apparatus of the present embodiment thus configured was used to measure how the chemical substance Carbachol acts on nerve cells prepared from lymnaea. More specifically, the normal distribution approximation unit 103 produced a frequency distribution of the standard deviations on the basis of signals that were detected by the measurement unit 101 before and after Carbachol was administered to lymnaea nerve cells at 50-μM concentration. […]
smiles,measurement,setting,value
C[N+](C)(C)CCOC(N)=O [Carbachol],Carbachol concentration at which the mean value of the standard deviations reaches its peak,[1],10 µM
same,effect on ion channels of the nerve cells,[2]; lymnaea nerve cells,activates the ion channels
same,mean value of the normal distribution of standard deviations after administration,"[2]; SD every 5 ms from 10-second signals, before administration 0.478, FIG. 12",0.703
